target: T1, TACE (ADAM17) (Homo sapiens, UniProt P78536); assay: TACE (ADAM17) inhibition test; format: biochemical; conditions: fluorescent synthetic substrate, 37° C. for 1.5 hours; read-out: TACE IC50
T1 construct: made in house; host or cells: mammalian cells or insect cells
Source text: The nucleotide sequence of TACE has been reported by Moss et al. (Moss, M. L. et al., Nature 1997, vol. 385, pp. 733-736). Based on this information, the cDNA of TACE was obtained according to the prescribed method from THP-1 cells or the like, and then incorporated the cDNA into an expression vector. Next, this vector was transformed into mammalian cells or insect cells, and TACE protein was expressed. The TACE protein was isolated, and used as an enzyme. Further, a fluorescent synthetic substrate Nma(N-methylanthranilic acid)-Leu-Ala-Gln-Ala-Val-Arg-Ser-Ser-Lys(Dnp(dinitrophenyl))-D-Arg-NH2 including the TACE-cleaved sequence of a membrane-bound TNF was used as a substrate. The enzyme reaction was carried out by adding 1.8 μL of a solution of the test substance to 90 μL of a fluorescent synthetic substrate prepared with an assay buffer B (50 mM tris-hydrochloric acid buffer (pH 7.5) including 200 mM sodium chloride, 5 mM calcium chloride, 10 μM zinc sulfate, and 0.05% PLURONIC F-68), then mixing 90 μL of a TACE enzyme solution prepared with an assay buffer A (50 mM tris-hydrochloric acid buffer (pH 7.5) including 200 mM sodium chloride, 5 mM calcium chloride, 10 μM zinc sulfate, and 2 mg/mL bovine serum albumin) and reacting at 37° C. for 1.5 hours. Enzyme activity was then determined by measuring with a fluorescence intensity meter (Labsystems, Fluoroskan Ascent) at an excitation wavelength of 355 nm and a measurement wavelength of 460 nm. The 50% inhibitory concentration (IC50) of the test substances was calculated by comparing enzyme activity in the presence and the absence of the test substance to determine the inhibition rate. Further, test substances having an IC50 strength of less than 100 nM were evaluated as “A”, and test substances having an IC50 strength of 100 nM or more were evaluated as “B”.

T1 sequence (P78536 215-824): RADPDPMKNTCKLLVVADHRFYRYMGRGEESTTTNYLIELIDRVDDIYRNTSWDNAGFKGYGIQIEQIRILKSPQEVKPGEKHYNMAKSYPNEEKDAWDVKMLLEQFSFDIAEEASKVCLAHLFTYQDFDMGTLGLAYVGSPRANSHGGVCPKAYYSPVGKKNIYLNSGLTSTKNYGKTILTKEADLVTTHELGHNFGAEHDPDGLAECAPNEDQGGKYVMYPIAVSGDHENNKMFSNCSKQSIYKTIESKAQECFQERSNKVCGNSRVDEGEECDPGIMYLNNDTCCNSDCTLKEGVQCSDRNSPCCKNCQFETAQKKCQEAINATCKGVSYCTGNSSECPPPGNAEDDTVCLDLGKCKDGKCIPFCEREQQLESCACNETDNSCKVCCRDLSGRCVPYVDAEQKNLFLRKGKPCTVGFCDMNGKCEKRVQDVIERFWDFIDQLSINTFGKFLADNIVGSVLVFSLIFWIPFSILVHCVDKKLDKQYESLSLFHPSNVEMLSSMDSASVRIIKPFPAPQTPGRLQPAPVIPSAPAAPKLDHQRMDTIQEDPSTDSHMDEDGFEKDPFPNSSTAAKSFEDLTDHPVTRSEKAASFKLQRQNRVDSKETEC

Row | IC50 | SMILES
1 | < 0.1 µM | COc1ccncc1-c1ccc(C2(Cn3cccc(C)c3=O)NC(=O)NC2=O)cc1 (racemic) [Compound I-91]
2 | < 0.1 µM | Cc1cccn(CC2(c3ccccc3)NC(=O)NC2=O)c1=O (racemic) [Compound I-1, 5-[(3-methyl-2-oxopyridin-1(2H)-yl)methyl]-5-phenyl-imidazolidine-2,4-dione]
3 | < 0.1 µM | Cc1cccn(CC2(c3cc4ccccc4o3)NC(=O)NC2=O)c1=O (racemic) [Compound I-6, 5-(benzofuran-2-yl)-5-[(3-methyl-2-oxopyridin-1(2H)-yl)methyl]imidazolidine-2,4-dione]
4 | < 0.1 µM | Cc1cccn(CC2(c3ccc4c(c3)OCCCO4)NC(=O)NC2=O)c1=O (racemic) [Compound I-105]
5 | < 0.1 µM | Cc1cccn(CC2(c3ccc(C(C)C)cc3)NC(=O)NC2=O)c1=O (racemic) [Compound I-117]
6 | < 0.1 µM | Cc1cccn(CC2(c3ccsc3)NC(=O)NC2=O)c1=O (racemic) [Compound I-5, 5-[(3-methyl-2-oxopyridin-1(2H)-yl)methyl]-5-(thiophen-3-yl)imidazolidine-2,4-dione]
7 | < 0.1 µM | Cc1cccn(CC2(c3cccc(-c4ccccc4)c3)NC(=O)NC2=O)c1=O (racemic) [Compound I-96]
8 | < 0.1 µM | Cc1cccn(CC2(c3cccc(C#CCN(C)C)c3)NC(=O)NC2=O)c1=O (racemic) [Compound I-71]
9 | < 0.1 µM | Cc1cccn(CC2(c3cccnc3)NC(=O)NC2=O)c1=O (racemic) [Compound I-8, 5-[(3-methyl-2-oxopyridin-1(2H)-yl)methyl]-5-(pyridin-3-yl)imidazolidine-2,4-dione]
10 | < 0.1 µM | Cc1ccc(Oc2ccc(C3(Cn4cccc(C)c4=O)NC(=O)NC3=O)cc2)cc1 (racemic) [Compound I-34, 5-[(3-methyl-2-oxopyridin-1(2H)-yl)methyl]-5-[4-(p-tolyloxy)phenyl]imidazolidine-2,4-dione]
11 | < 0.1 µM | Cc1cccn(CC2(c3ccc4occc4c3)NC(=O)NC2=O)c1=O (racemic) [Compound I-22, 5-(benzofuran-5-yl)-5-[(3-methyl-2-oxopyridin-1(2H)-yl)methyl]imidazolidine-2,4-dione]
12 | < 0.1 µM | O=C1NC(=O)C(Cn2cccc(F)c2=O)(c2ccc(F)cc2)N1 (racemic) [Compound I-48, 5-[(3-fluoro-2-oxopyridin-1(2H)-yl)methyl]-5-(4-fluorophenyl)-imidazolidine-2,4-dione]
13 | < 0.1 µM | Cc1cccc(Oc2ccc(C3(Cn4cccc(C)c4=O)NC(=O)NC3=O)cc2)c1 (racemic) [Compound I-80]
14 | < 0.1 µM | Cc1cccn(CC2(c3ccc(OC4CCCC4)cc3)NC(=O)NC2=O)c1=O (racemic) [Compound I-124]
15 | < 0.1 µM | Cc1cccn(CC2(c3ccc(Oc4ccc(Cl)cc4)cc3)NC(=O)NC2=O)c1=O (racemic) [Compound I-82]
16 | ≥ 0.1 µM | C=C(C)c1cccn(CC2(c3ccc(OC)cc3)NC(=O)NC2=O)c1=O (racemic) [Compound I-144]
17 | < 0.1 µM | Cc1cccn(CC2(c3ccc(Oc4cccc(F)c4)c(F)c3)NC(=O)NC2=O)c1=O (racemic) [Compound I-112]
18 | < 0.1 µM | COc1ccc(C2(Cn3cccc(C)c3=O)NC(=O)NC2=O)cc1OC (racemic) [Compound I-16, 5-(3,4-dimethoxyphenyl)-5-[(3-methyl-2-oxopyridin-1(2H)-yl)methyl]imidazolidine-2,4-dione]
19 | < 0.1 µM | COc1cccc(Oc2ccc(C3(Cn4cccc(C)c4=O)NC(=O)NC3=O)cc2)c1 (racemic) [Compound I-83]
20 | < 0.1 µM | O=C1NC(=O)C(Cn2cccc(C(F)(F)F)c2=O)(c2ccccc2)N1 (racemic) [Compound I-140]
21 | < 0.1 µM | Cc1cccn(CC2(c3cccc(-c4cccnc4)c3)NC(=O)NC2=O)c1=O (racemic) [Compound I-62]
22 | < 0.1 µM | Cc1ccccc1Oc1ccc(C2(Cn3cccc(C)c3=O)NC(=O)NC2=O)cc1 (racemic) [Compound I-35, 5-[(3-methyl-2-oxopyridin-1(2H)-yl)methyl]-5-[4-(o-tolyloxy)phenyl]imidazolidine-2,4-dione]
23 | < 0.1 µM | Cc1cccn(CC2(c3ccc(C#Cc4ccccc4)cc3)NC(=O)NC2=O)c1=O (racemic) [Compound I-106]
24 | < 0.1 µM | Cc1cccn(CC2(c3ccc(C#Cc4ccccn4)cc3)NC(=O)NC2=O)c1=O (racemic) [Compound I-110]

Row | IC50 | SMILES
25 | < 0.1 µM | O=C1NC(=O)C(Cn2ccccc2=O)(c2ccc(F)c(F)c2)N1 (racemic) [Compound I-155]
26 | < 0.1 µM | COc1ccc(OC)c(C2(Cn3cccc(C)c3=O)NC(=O)NC2=O)c1 (racemic) [Compound I-20, 5-(2,5-dimethoxyphenyl)-5-[(3-methyl-2-oxopyridin-1(2H)-yl)methyl]imidazolidine-2,4-dione]
27 | < 0.1 µM | Cc1cccn(CC2(c3ccc(C(F)(F)F)cc3)NC(=O)NC2=O)c1=O (racemic) [Compound I-89]
28 | < 0.1 µM | Cc1cccn(CC2(c3ccncc3)NC(=O)NC2=O)c1=O (racemic) [Compound I-55]
29 | < 0.1 µM | Cc1cccn(CC2(c3ccc(Oc4ccc(F)cc4)cc3)NC(=O)NC2=O)c1=O (racemic) [Compound I-85]
30 | < 0.1 µM | Cc1cccn(CC2(c3ccc4c(c3)OCO4)NC(=O)NC2=O)c1=O (racemic) [Compound I-65]
31 | < 0.1 µM | Cc1cccn(CC2(c3cccc(F)c3F)NC(=O)NC2=O)c1=O (racemic) [Compound I-153]
32 | < 0.1 µM | Cc1cccn(CC2(c3ccc(-c4ccc(F)cc4)cc3)NC(=O)NC2=O)c1=O (racemic) [Compound I-75]
33 | < 0.1 µM | O=C1NC(=O)C(Cn2cccc(F)c2=O)(c2ccc3ccccc3c2)N1 (racemic) [Compound I-135]
34 | < 0.1 µM | Cc1cccn(CC2(c3ccc(Br)cc3)NC(=O)NC2=O)c1=O (racemic) [Compound I-11, 5-(4-bromophenyl)-5-[(3-methyl-2-oxopyridin-1(2H)-yl)methyl]imidazolidine-2,4-dione]
35 | < 0.1 µM | O=C1NC(=O)C(Cn2cccc(Cl)c2=O)(c2ccccc2)N1 (racemic) [Compound I-50, 5-[(3-chloro-2-oxopyridin-1(2H)-yl)methyl]-5-phenylimidazolidine-2,4-dione]
36 | < 0.1 µM | Cc1cccn(CC2(c3ccc(-c4ccncc4)cc3)NC(=O)NC2=O)c1=O (racemic) [Compound I-31, 5-[(3-methyl-2-oxopyridin-1(2H)-yl)methyl]-5-[4-(pyridin-4-yl)phenyl]imidazolidine-2,4-dione]
37 | < 0.1 µM | Cc1cccn(CC2(c3ccc(CC(C)C)cc3)NC(=O)NC2=O)c1=O (racemic) [Compound I-121]
38 | < 0.1 µM | O=C1NC(=O)C(Cn2cccc(Br)c2=O)(c2ccccc2)N1 (racemic) [Compound I-139]
39 | < 0.1 µM | Cc1cccn(CC2(c3cccc(OC(F)(F)F)c3)NC(=O)NC2=O)c1=O (racemic) [Compound I-67]
40 | ≥ 0.1 µM | O=C1NC(=O)C(Cn2cccc(CO)c2=O)(c2ccc(Cc3ccccc3)cc2)N1 (racemic) [Compound I-151]
41 | ≥ 0.1 µM | CCc1cccn(CC2(c3ccc(OC)cc3)NC(=O)NC2=O)c1=O (racemic) [Compound I-53, 5-[(3-ethyl-2-oxopyridin-1(2H)-yl)methyl]-5-(4-methoxyphenyl)imidazolidine-2,4-dione]
42 | < 0.1 µM | Cc1cc(C2(Cn3cccc(C)c3=O)NC(=O)NC2=O)ccc1OC1C=CCCC1 (stereo not drawn) [Compound I-38]
43 | ≥ 0.1 µM | COc1ccc(C)cc1C1(Cn2cccc(C)c2=O)NC(=O)NC1=O (racemic) [Compound I-76]
44 | < 0.1 µM | COCOc1ccc(C2(Cn3cccc(C)c3=O)NC(=O)NC2=O)cc1 (racemic) [Compound I-13, 5-[4-(methoxymethoxy)phenyl]-5-[(3-methyl-2-oxopyridin-1(2H)-yl)methyl]imidazolidine-2,4-dione]
45 | < 0.1 µM | Cc1cccn(CC2(c3ccc(-c4cccnc4)cc3)NC(=O)NC2=O)c1=O (racemic) [Compound I-32, 5-[(3-methyl-2-oxopyridin-1(2H)-yl)methyl]-5-[4-(pyridin-3-yl)phenyl]imidazolidine-2,4-dione]
46 | < 0.1 µM | COc1ccc(C2(Cn3cccc(C)c3=O)NC(=O)NC2=O)cc1 (racemic) [Compound I-2, 5-(4-methoxyphenyl)-5-[(3-methyl-2-oxopyridin-1(2H)-yl)methyl]imidazolidine-2,4-dione]
47 | < 0.1 µM | Cc1cccn(CC2(c3ccc(OC4C=CCCC4)cc3)NC(=O)NC2=O)c1=O (racemic) [Compound I-36, 5-[4-(cyclohex-2-en-1-yloxy)phenyl]-5-[(3-methyl-2-oxopyridin-1(2H)-yl)methyl]imidazolidine-2,4-dione]
48 | < 0.1 µM | O=C1NC(=O)C(Cn2cccc(Cl)c2=O)(c2cc3ccccc3o2)N1 (racemic) [Compound I-51, 5-(benzofuran-2-yl)-5-[(3-chloro-2-oxopyridin-1(2H)-yl)methyl]imidazolidine-2,4-dione]

Source: patent US20160168540A1, “COMPOSITION FOR MAINTAINING PLATELET FUNCTION” (KYOTO UNIVERSITY, priority 2013, published 2016)
